Assays:
[1] = pKa of photostabilizer (half neutralization potential titration); assay type: physicochemical; conditions: non-aqueous titration, HNP calibration curve
Experimental: (Method of Measuring pKa of Photostabilizer)
A solution of 0.1 N perchloric acid/dioxane and acetonitrile:chloroform=1:1 was added dropwise to an organic reference substance having known pKa value in an aqueous system to determine the half neutralization potential (HNP) by titration in a non-aqueous system. A plot of the HNP calibration curve for pKa was prepared. Then, titration was performed for the photostabilizer in the same manner to determine a corresponding pKa from the plot of calibration curve.

[2] = pKa of ultraviolet absorber upon light absorption; assay type: physicochemical; conditions: when irradiated with light, absorption spectrum; for pKa: acetonitrile solution titrated with 70% perchloric acid
Experimental: (Method of Measuring pKa of Ultraviolet Absorber Upon Light Absorption)
The ultraviolet absorber was dissolved in acetonitrile so that the absorbance at the maximum absorption wavelength became 1, and bubbling with nitrogen was performed for 15 minutes. Then, 70% perchloric acid was dropped into the solution to change the pH of the solution. At that time, the absorption spectrum of the solution was measured, and, from the absorbance at λmax, the ultraviolet absorber at each pH and the ultraviolet absorber in which hydrogen ion is added to the nitrogen of the benzotriazole skeleton or triazine skeleton of the ultraviolet absorber were obtained. From the point where these values become equal, pKa of the ultraviolet absorber upon light absorption was determined. Measurement of the absorption spectrum was performed by using a U-4000 spectrophotometer manufactured by Hitachi High-Technologies Corporation.

| SMILES | Photostabilizer pKa [1] | further results |
| --- | --- | --- |
| CCCCCCCCON1C(C)(C)CC(OC(=O)CCCCCCCCC(=O)OC2CC(C)(C)N(OCCCCCCCC)C(C)(C)C2)CC1(C)C [Tinuvin 123] | 4.7 | Photostabilizer pKa ([1]; listed as Tinuvin123): 4.5 |
| Cc1cc(-n2nc3ccc(Cl)cc3n2)c(O)c(C(C)(C)C)c1 [Tinuvin 326, 2-(5-chloro-2-benzotriazolyl)-6-tert-butyl-p-cresol] | – | pKa [2]: -4.9 |
| CC1(C)CC(OC(=O)CCCCCCCCC(=O)OC2CC(C)(C)NC(C)(C)C2)CC(C)(C)N1 [Chimassorb 770] | 9.0 | – |
| CC(C)(C)CC(C)(C)c1ccc(O)c(-n2nc3ccccc3n2)c1 [Tinuvin 329] | – | Ultraviolet absorber pKa ([2]; acetonitrile, 70% perchloric acid): −4.9 |
| CCCCCCCCOc1ccc(-c2nc(-c3ccc(C)cc3C)nc(-c3ccc(C)cc3C)n2)c(O)c1 [CYASORB UV-1164, 2,4-bis(2,4-dimethylphenyl)-6-(2-hydroxy-4-n-octyloxyphenyl)-1,3,5-triazine] | – | pKa [2]: -5 |
| CCCCCCCCCCCCCCN1C(=O)NC2(CC(C)(C)N(C(C)=O)C(C)(C)C2)C1=O [8-acetyl-3-tetradecyl-7,7,9,9-tetramethyl-1,3,8-triazaspiro[4.5]decane-2,4-dione] | – | pKa [1]: 3.5 |
| CCCCN(c1nc(NCCO)nc(N(CCCC)C2CC(C)(C)N(OC3CCCCC3)C(C)(C)C2)n1)C1CC(C)(C)N(OC2CCCCC2)C(C)(C)C1 [Tinuvin 152] | 7.0 | – |

The next lines start with results.

| Photostabilizer pKa [1] | SMILES | further results |
| --- | --- | --- |
| 5.5 | CCCCCCCCCCCON1C(C)(C)CC(OC(=O)OC2CC(C)(C)N(OCCCCCCCCCCC)C(C)(C)C2)CC1(C)C [LA-81] | – |
| 9.5 | CCCCC(Cc1cc(C(C)(C)C)c(O)c(C(C)(C)C)c1)(C(=O)OC1CC(C)(C)N(C)C(C)(C)C1)C(=O)OC1CC(C)(C)N(C)C(C)(C)C1 [Tinuvin PA144] | – |
